Target: URAT1 (Homo sapiens (Human), UniProt Q96S37)
Experiment: Uptake of [14C] uric acid using HEK-URAT1
Assay type: cell-based
Conditions: 2 min; [14C] uric acid uptake into URAT1 stably expressed HEK293 cells, 10 μM test compound, 5 μM uric acid, 2 minutes, 37° C.; uptake without test compound = 100%; read-out: % control (10 μM)
Procedure: More specifically, the test is performed by culturing URAT1 stably expressed HEK293 cells (HEK-URAT1) or HEK293 cells transfected with empty vector (HEK-mock) in a DMEM culture medium in an incubator. Subsequently, 1×10^5 cells are respectively seeded in 24-well culture plate coated with poly D-lysine and the uptake test is started after the culturing.
The cells are washed with a solution for a test warmed to 37° C. and equilibrated. After a buffer solution is removed from the cells, 0.5 mL of an uptake solution containing 5 μM [^14C] uric acid with or without a test compound is respectively added and the cells are incubated. The cell uptake is stopped by adding a Hanks buffer solution and the cells are washed. The cells are lysed with 0.1 N sodium hydroxide and the radioactivity is measured using LSC6100 (Aloka Co., Ltd. Tokyo). Each uptake into HEK-URAT1 is acquired by subtracting uptake into HEK-mock cells from the value of HEK-URAT1, converting the result to per mg protein of cells, and setting the values from the uptake without the test compound as 100%.
URAT1 stably expressed HEK293 cells (HEK-URAT1) or HEK293 cells transfected with empty vector (HEK-mock) were cultured in DMEM culture medium supplemented with 10% fetal bovine serum in an incubator under conditions of 5% carbon dioxide at 37° C. Subsequently, 1×10^5 cells were respectively seeded in 24-well culture plate coated with poly D-lysine and the uptake test was started after the culturing for 3 days.
The uptake experiment of uric acid was performed at 37° C. […] After a buffer solution was removed from the cells, 0.5 mL of an uptake solution containing 5 μM [^14C] uric acid with or without a test compound was respectively added and the cells were incubated for 2 minutes. The cell uptake was stopped by adding an ice-cold Hanks buffer solution without chloride ions and the cells were washed 3 times. The cells were lysed with 0.1 N sodium hydroxide and the radioactivity was measured using LSC6100 (Aloka Co., Ltd. Tokyo). Each uptake into HEK-URAT1 was acquired by subtracting uptake into HEK-mock cells from the value of HEK-URAT1, converting the result to per mg protein of cells, and setting the value from uptake without the test compound as 100%. The uptake in each condition was performed in triplicate and each value was represented by average±standard deviation.
The URAT1 inhibitory action was measured according to the same method as in Example 118.

URAT1, sequence (Q96S37 whole entry): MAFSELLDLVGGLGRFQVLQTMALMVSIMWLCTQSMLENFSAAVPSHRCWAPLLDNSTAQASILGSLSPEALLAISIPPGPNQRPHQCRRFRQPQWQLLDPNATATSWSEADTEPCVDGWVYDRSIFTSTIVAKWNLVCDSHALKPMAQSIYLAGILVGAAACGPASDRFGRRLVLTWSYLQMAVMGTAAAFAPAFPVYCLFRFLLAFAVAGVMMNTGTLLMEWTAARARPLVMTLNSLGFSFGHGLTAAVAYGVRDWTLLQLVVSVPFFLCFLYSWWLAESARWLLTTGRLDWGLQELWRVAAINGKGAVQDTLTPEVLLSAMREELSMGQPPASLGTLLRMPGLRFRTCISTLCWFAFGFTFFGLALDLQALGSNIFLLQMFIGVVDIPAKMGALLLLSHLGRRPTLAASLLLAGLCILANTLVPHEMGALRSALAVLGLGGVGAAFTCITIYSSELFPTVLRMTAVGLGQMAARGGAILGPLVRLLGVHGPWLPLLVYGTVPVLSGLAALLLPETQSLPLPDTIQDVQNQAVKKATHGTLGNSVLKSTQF

- remaining activity at 10 µM: 11.6%
SMILES: CC(C)(Oc1ccc2cnsc2c1-c1ccc(C#N)cc1)C(=O)O [Example 26, 2-[[7-(4-Cyanophenyl)benzo[d]isothiazol-6-yl]oxy]-2-methylpropanoic acid]

Reference: US10173990B2, “URAT1 inhibitor” (Nippon Chemiphar Co., Ltd., priority 2014, dated 2019)
